Data published in patent US20210388213A1, “PROCESS FOR PRODUCING AQUEOUS COATING COMPOSITIONS” (CELANESE INTERNATIONAL CORPORATION, priority 2018, published 2021).

Test system: mixture of bacteria, yeasts and fungi/moulds (inoculum)
Experiment: Challenge test of preserved polymer dispersions with mixed inoculum (repeated up to six cycles)
Format: cell-based
Conditions: at concentrations of <15 ppm in products such as aqueous coating compositions
Method: 100 g of the dispersions listed above are weighed into sterile sample bottles. To each sample 1% by weight of an inoculum is added and incubated at 30° C. for 7 days. As inoculum, a suspension in water which contains the following concentrations is used: Bacteria: 8.0×10^8−2.0×10^9 cfu/cm^3 Yeasts/moulds: 8.0×10^6−2.0×10^7 cfu/cm^3 A mixture of the following bacteria, yeasts and fungi/moulds are used for the preparation of the inoculum: Bacteria mixture of: Aeromonas hydrophila (sorbia, BAM 485) Alcaligenes faecalis (BAM 486) Providencia rettgeri (BAM 488) Pseudomonas aeruginosa (BAM 489) Pseudomonas sp (BAM 490) Escherichia coli (DSM 13631) Staphylococcus aureus (DSM 346) Micrococcus Luteus (DSM 20030) Yeast mixture of: Rhodotorula rubra (DSM 13621) Saccharomyces cerevisiae (DSM 13622) Issatchenkia orientalis (DSM 6128) Filamentous Fungy mixture of: Aspergillus terréus (DSM 13630) Geotrichum candidum (DSM 13629) Fusarium Solani (DSM 13635) After 7 days the microbial contamination remaining in the samples is determined by streaking the samples out onto Trypticase Sel Agar (TSA) and on Malt Extra Agar (MEA) as nutrient media and incubated at 30° C. for 7 days. The level of growing is measured by using a rating of 0 for no growth up to a rating of 3 for full growth. The test is passed in case no growth is observed which means a rating of 0 on TSA and MEA nutrient media. […]

SMILES: Cn1sc(Cl)cc1=O [CIT, 5-chloro-2-methyl-4-isothiazolin-3-one]
- protection against microbial attack: not sufficient
